Test systems include 786-0 renal; BT-549 breast; LOX IMVI melanoma; NCI-H460 lung; PC-3 prostate; RXF 393 renal; SNB-19 CNS; SNB-75 CNS; SW-620 colon; UO-31 renal.
What all share (assay): inhibition of tumour cell growth, NCI panel, 48 h

Results on 19 molecules are retold here after PubChem BioAssay (NCI).

“And” between values parts separate entries of the source, which are not always exact repeats. Equal values may be shown once.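 The compound was tested at five concentrations on cells cultured in 96-well plates, with a 48-hour exposure period. Abbreviation: GI50, concentration required for 50% inhibition of growth. The concentration for full growth arrest is given as TGI.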

`CC(=O)OCC(=O)O[C@@H]1[C@H]2[C@@H](OC(=O)c3ccccc3)[C@@H](C)C[C@]2(O)[C@H](OC(C)=O)[C@@]2(C)C[C@]1(OC(C)=O)C[C@H]1C(=O)C(C)(C)[C@@H](OC(C)=O)[C@@H]12`: the TGI in the assay with 786-0 renal, with BT-549 breast, in the assay with LOX IMVI melanoma, in the assay on NCI-H460 lung, with PC-3 prostate and with RXF 393 renal was more than 25 µM throughout. For the same molecule, the TGI in the assay on SNB-19 CNS is more than 25 µM; in the assay on SNB-75 CNS it was more than 25 µM; in the assay with SW-620 colon, more than 25 µM; in the assay on UO-31 renal it was more than 6.83 µM.

With `CCCCCCCCCCCCNC(=O)CCC(NC(=O)c1ccc(N(C)Cc2cnc3nc(N)nc(N)c3n2)cc1)C(=O)NCCCCCCCCCCCC` (stereo not given), the TGI in the assay on 786-0 renal was more than 100 µM; in the assay on BT-549 breast, more than 100 µM; in the assay on LOX IMVI melanoma, 30.7 µM; in the assay with PC-3 prostate, more than 100 µM; with RXF 393 renal it was 43.3 µM; with SNB-19 CNS it was 72.1 µM. Besides, the TGI with SNB-75 CNS is 20.8 µM; in the assay on SW-620 colon, more than 100 µM; in the assay with UO-31 renal, more than 100 µM.

In the case of `O=P1(C(O)/C=C/c2ccccc2)N(Cc2ccccc2)[C@@H]2CCCC[C@H]2N1Cc1ccccc1` (stereo not given in full), the TGI was determined as 18.8 µM in the assay on 786-0 renal; 34.2 µM in the assay with BT-549 breast; 13.7 µM in the assay with LOX IMVI melanoma; 14.7 µM in the assay with NCI-H460 lung; 11.3 µM in the assay with PC-3 prostate; 23.5 µM in the assay on RXF 393 renal. The TGI came to 20.6 µM in the assay with SNB-19 CNS, 54.5 µM in the assay with SNB-75 CNS, 33.3 µM in the assay with SW-620 colon and 17.7 µM in the assay on UO-31 renal.

Take `O=C1/C(=C/c2ccncc2)C(n2cccc2)c2c(Br)sc(Br)c21` (stereo not given): the TGI in the assay on 786-0 renal was found to be 11.5 µM; with BT-549 breast it was 16.8 µM; in the assay on LOX IMVI melanoma, 4.54 µM; in the assay with NCI-H460 lung, 18.1 µM; with PC-3 prostate it was 16.1 µM; with RXF 393 renal, 3.96 µM. The TGI amounted to 30.6 µM in the assay on SNB-19 CNS, 9.79 µM with SNB-75 CNS, 3.55 µM in the assay on SW-620 colon and 5.42 µM in the assay on UO-31 renal.

For `C=C(C)[C@H]1CC(=O)/C(C)=C\CC/C(C)=C/CC[C@@]2(C)O[C@@H]2C1`, the TGI was more than 100 µM in the assay with 786-0 renal; more than 100 µM in the assay with BT-549 breast; 32.2 µM in the assay with LOX IMVI melanoma; 33.1 µM in the assay on NCI-H460 lung; 64.5 µM in the assay with PC-3 prostate; more than 100 µM in the assay with SNB-19 CNS. Moreover, the results for the TGI in the assay with SNB-75 CNS, in the assay on SW-620 colon and in the assay with UO-31 renal were more than 100 µM, more than 100 µM and 48.4 µM, respectively.

As for `O=C1/C(=C/c2ccc(Cl)cc2)CCCc2ccc(F)cc21`, the GI50 in the assay on BT-549 breast was 39.8 µM; with LOX IMVI melanoma, 14.4 µM; in the assay with NCI-H460 lung, 20.1 µM; with PC-3 prostate, 15.9 µM; with RXF 393 renal it was 24.2 µM; in the assay on SNB-19 CNS, 27.6 µM. Also, the GI50 with SNB-75 CNS was 48.3 µM; with SW-620 colon, 15.4 µM; in the assay with UO-31 renal, 15.8 µM. Further, the TGI with BT-549 breast was more than 100 µM; in the assay with LOX IMVI melanoma, 31.8 µM; in the assay on NCI-H460 lung it was 54 µM; in the assay with PC-3 prostate, 48.3 µM; with RXF 393 renal it was 52 µM; in the assay with SNB-19 CNS it was 80.2 µM. Besides, the TGI is more than 100 µM with SNB-75 CNS, 31.6 µM with SW-620 colon and 35.9 µM in the assay with UO-31 renal.

On to `CCCCN1C(=O)CC2[C@@H]3CCc4cc(OC)ccc4C3CC[C@]2(C)C1=O` (stereo not given in full), for which the TGI in the assay with 786-0 renal, in the assay with BT-549 breast, in the assay with LOX IMVI melanoma, in the assay with NCI-H460 lung, in the assay with PC-3 prostate and in the assay with RXF 393 renal was more than 10 µM throughout. In addition, the TGI in the assay on SNB-19 CNS, with SNB-75 CNS, in the assay on SW-620 colon and in the assay with UO-31 renal was more than 10 µM throughout.

As for `NCCCCNCCCNC(=O)CNC(=O)CC(O)C(N)CCCC(NC(=O)C(CN)NC(=O)C(O)CNC(=O)CC(N)c1ccc(O)cc1)C(=O)O` (stereo not given), the TGI in the assay on 786-0 renal, with BT-549 breast, in the assay on LOX IMVI melanoma, in the assay with NCI-H460 lung, in the assay with PC-3 prostate and in the assay on RXF 393 renal was more than 10 µM in each case. The TGI with SNB-19 CNS, in the assay with SNB-75 CNS and in the assay on UO-31 renal was more than 10 µM throughout.

In the case of `COc1ccc(C2Oc3c(OC)cc(CCCO)cc3C2CO)cc1OC` (stereo not given), the TGI in the assay on 786-0 renal, in the assay with BT-549 breast, in the assay with LOX IMVI melanoma, in the assay with NCI-H460 lung, in the assay with PC-3 prostate and in the assay on RXF 393 renal was more than 100 µM throughout. The TGI with SNB-19 CNS, with SNB-75 CNS, with SW-620 colon and in the assay on UO-31 renal was more than 100 µM throughout. For the same molecule, the GI50 was > 100 µM and 17 µM in the assay with LOX IMVI melanoma; 38.9 µM and > 100 µM in the assay on UO-31 renal.

As to `NC(N)=NS(=O)(=O)c1ccc(NC(=O)c2cccc3c(NNc4ccc(S(N)(=O)=O)cc4)c4ccccc4nc23)cc1`, the TGI with 786-0 renal was more than 100 µM; with BT-549 breast it was more than 100 µM; in the assay with LOX IMVI melanoma, 36.5 µM; in the assay with NCI-H460 lung it was more than 100 µM; in the assay with PC-3 prostate, more than 100 µM; in the assay on RXF 393 renal it was more than 100 µM. Moreover, the TGI in the assay with SNB-19 CNS, in the assay on SNB-75 CNS, with SW-620 colon and with UO-31 renal was more than 100 µM in each case.

For the molecule `CC(C)(C)c1cc(/C=C2/NC(=O)NC2=O)cc(C(C)(C)C)c1O`, the TGI stood at 33.3 µM in the assay with 786-0 renal; 27.3 µM in the assay on BT-549 breast; 32.9 µM in the assay on LOX IMVI melanoma; 29.1 µM in the assay on NCI-H460 lung; 20.3 µM in the assay with PC-3 prostate; 19.7 µM in the assay on RXF 393 renal. The TGI with SNB-75 CNS was 25.2 µM; in the assay with SW-620 colon, 39.3 µM.

As to `CCN1CCN(Cc2ccc(NC(=O)Nc3ccc(-n4ccc5c(NC(=O)c6ccccc6)nccc54)cc3)cc2C(F)(F)F)CC1`, the GI50 in the assay on BT-549 breast was 1.43 µM; with NCI-H460 lung it was 0.0811 µM; with PC-3 prostate, 1.16 µM; in the assay with SNB-75 CNS it was 1.37 µM; in the assay with SW-620 colon, 0.513 µM. Moreover, the TGI in the assay on BT-549 breast is 2.77 µM; with NCI-H460 lung, 1.45 µM; with PC-3 prostate it was 4.68 µM; in the assay with SNB-75 CNS, 2.68 µM; in the assay on SW-620 colon, 1.7 µM.

Regarding `CC(=O)N(C)c1ccc(Nc2ccnc3ccc4nn(C)nc4c23)cc1`, the TGI in the assay with 786-0 renal was more than 100 µM; in the assay with BT-549 breast it was 69.4 µM; in the assay on LOX IMVI melanoma, 30.6 µM; in the assay on PC-3 prostate it was more than 100 µM; in the assay on RXF 393 renal, 48.1 µM; in the assay with SNB-19 CNS it was more than 100 µM. Moreover, the TGI with SNB-75 CNS was more than 100 µM; in the assay on SW-620 colon, more than 100 µM; with UO-31 renal, 29.2 µM.

Regarding `Oc1c(OCc2nnc(CCCCCCCCc3nnc(COc4ccc5ccccc5c4O)o3)o2)ccc2ccccc12`, the TGI was 50.8 µM in the assay on 786-0 renal; more than 100 µM with BT-549 breast; more than 100 µM with NCI-H460 lung; more than 100 µM in the assay with PC-3 prostate; more than 100 µM in the assay on RXF 393 renal; more than 100 µM in the assay with SNB-19 CNS. The TGI with SNB-75 CNS, with SW-620 colon and in the assay on UO-31 renal was more than 100 µM each time.

Consider `O=c1[nH]c(=O)n(C2CC(O)C(CO)O2)cc1OC/C=C/Cc1ccccc1` (stereo not given), for which the TGI with 786-0 renal, in the assay on BT-549 breast, with LOX IMVI melanoma, in the assay with NCI-H460 lung, in the assay with PC-3 prostate and with RXF 393 renal was more than 100 µM each time. Also, the TGI with SNB-19 CNS, in the assay with SNB-75 CNS and with UO-31 renal was more than 100 µM each time.

With `COc1ccc2c(c1)-c1c(c3cc(OC)ccc3n1CCN(C)C)CC2`, the TGI in the assay on 786-0 renal stood at 22.7 µM; in the assay on BT-549 breast, 26.9 µM; with NCI-H460 lung, 25.9 µM; in the assay with PC-3 prostate, 25.9 µM; in the assay on RXF 393 renal, 28.2 µM; with SNB-75 CNS, 43.4 µM. Besides, the TGI with SW-620 colon worked out at 31.1 µM; with UO-31 renal it was 23.1 µM.

Regarding `Cc1cccc(NS(=O)(=O)c2ccc(N=Nc3c(O)c(C(=O)O)cc4ccccc34)cc2)n1`, the TGI in the assay on 786-0 renal, in the assay on BT-549 breast, in the assay with NCI-H460 lung, in the assay with PC-3 prostate, with RXF 393 renal and with SNB-19 CNS was more than 100 µM each time. The TGI with SNB-75 CNS, in the assay on SW-620 colon and in the assay with UO-31 renal was more than 100 µM throughout.

In the case of `Cc1ccc(C(=O)Cc2nc3c([nH]c2=O)c(C)nn3-c2ccccc2)c(C)c1`, the TGI with 786-0 renal is more than 10 µM; in the assay on BT-549 breast it was more than 10 µM; with LOX IMVI melanoma it was more than 10 µM; in the assay with PC-3 prostate, more than 10 µM; in the assay on SNB-19 CNS, more than 10 µM; in the assay with SNB-75 CNS, 3.46 µM. The same molecule came in with a TGI in the assay with SW-620 colon of more than 10 µM.

As for `O=C1c2cccnc2S(=O)(=O)N1c1ccc([N+](=O)[O-])cc1`, the TGI in the assay with 786-0 renal, with BT-549 breast, with LOX IMVI melanoma, in the assay with NCI-H460 lung, in the assay on PC-3 prostate and with SNB-19 CNS was more than 100 µM throughout. For the same molecule, the TGI in the assay with SNB-75 CNS, with SW-620 colon and in the assay on UO-31 renal was more than 100 µM in each case.
